Reference: patent US7025958B2, “Use of amidoamines to treat or prevent acanthamoeba and fungal infections” (Alcon, Inc., priority 2000, dated 2006)

What was measured:
Format in all cases: cell-based
[1] = test system: Acanthamoeba polyphaga cysts (ATCC 30871); assay: Dose/response of survivors, Acanthamoeba polyphaga cysts in Mueller Hinton Broth
Method: A 0.1% stock solution of Compound No. 4 was prepared. The compound was dissolved in TRIS buffer^1 by gently heating and swirling. The final pH was adjusted to 7.8 with 1N HCl. […] To prepare the samples, a 0.1% stock solution of Compound No. 4 was serially diluted in Mueller Hinton Broth (MHB)^2,3 (BBL) to provide concentrations of 0.01 w/v %, 0.001 w/v %, 0.0001 w/v %, and 0.00001 w/v %, respectively. Solutions containing 0.02 w/v % polyhexamethylene biguanide (PHMP) and 0.1 w/v % chlorhexidine, respectively, were also utilized as controls.
The samples were inoculated with low levels (approximately 3.0×10^2 organisms/mL) of the test organism. The test organism was Acanthamoeba polyphaga cysts (ATCC 30871) produced 14 days in. PYG and then 14 days in Page's saline, followed by one month of refrigeration. The samples were checked for survivors at 4, 24, and 48 hours post inoculation. The samples were serially diluted in Dey-Engley neutralizing broth (DE) (Difco) and plated in quadruplicate in tissue culture plate wells containing non-nutrient agar overlaid with E. coli. Plates were sealed and incubated for 14 days at 30-35° C. Results were recorded and counts calculated using the Reed and Muench computation.

C. albicans ATCC 10231 = assay: Dose/response of survivors against fungi, C. albicans
Method: (§1) A 0.1% stock solution of Compound No. 4 was prepared. The compound was dissolved in TRIS buffer^1 by gently heating and swirling. The final pH was adjusted to 7.8 with 1N HCl. […] To prepare the samples, a 0.1% stock solution of Compound No. 4 was serially diluted in Mueller Hinton Broth (MHB)^2,3 (BBL) to provide solutions containing Compound No. 4 in concentrations of 0.01 w/v %, 0.001 w/v %, 0.0001 w/v %, and 0.00001 w/v %, respectively. Solutions containing 0.02 w/v % PHMB and 0.1 w/v % chlorhexidine, respectively, were utilized as controls.
(§2) The samples were inoculated with low levels (approximately 1.0×10^3 organisms/mL) of the test organism. The test organisms included the fungi C. albicans ATCC 10231 and F. solani ATCC 36031. The samples were checked for survivors at 4, 24, and 48 hours post inoculation. The samples were serially diluted in Dey Engley neutralizing broth (DE) (Difco) and plated in duplicate using trypicase soy agar containing 0.07% asolectin and 0.5% Tween 80. The plates were incubated for 5 days at 20-25° C. and plate counts recorded.

F. solani ATCC 36031 = assay: Dose/response of survivors against fungi, F. solani
Method: as §1, §2

[2] = test system: Acanthamoeba Strain 1501-3D (NNA cysts); assay: Minimum cysticidal concentration, strain 1501-3D; conditions: 24 hours exposure at 32° C.
Method: (§3) Two different vehicles were utilized to prepare solutions containing Compound No. 4. The first vehicle was the same as the vehicle described in Formulation No. 4 (see Example 2, above), and the second vehicle was a 2 mM TRIS. HCl solution (pH 7.8).
(§4) Minimum cysticidal levels of Compound No. 4 for Acanthamoeba keratitis strains was determined as follows. Briefly, 100 μl serial, two-fold dilutions were prepared across the rows of a microtitre plate. Control wells received only diluent. An equal volume of five strains of Acanthamoba cysts were added to the wells and the plates sealed and incubated at 32° C. for 24 hours. Using a multi-channel pipette, the solutions in the wells were removed and replaced with 200 μl of ¼ strength Lactated Ringer's solution and left at room temperature for 15 minutes. The washing procedure was repeated twice more before finally filling the wells with 100 μl of ¼ strength Lactated Ringer's solution containing live E. coli at an O.D.540 of 0.2. The plates were then sealed and incubated at 32° C. for up to 7 days.
(§5) The MCC values for Compound No. 4 and chlorhexidine against the five Acanthamoeba strains (NNA cysts) tested are set forth in Table 4, below.

[3] = test system: Acanthamoeba Strain Uni Tap Water 1501-3D (NNA cysts); assay: Minimum cysticidal concentration, strain Uni Tap Water 1501-3D; conditions: 24 hours exposure at 32° C.
Method: as §3, §4, §5

[4] = test system: Acanthamoeba Strain 1501-2g (NNA cysts); assay: Minimum cysticidal concentration, strain 1501-2g; conditions: 24 hours exposure at 32° C.
Method: as §3, §4, §5

[5] = test system: Acanthamoeba Strain Ros (NNA cysts); assay: Minimum cysticidal concentration, strain Ros; conditions: 24 hours exposure at 32° C.
Method: as §3, §4, §5

[6] = test system: Acanthamoeba Strain Watson (NNA cysts); assay: Minimum cysticidal concentration, strain Watson; conditions: 24 hours exposure at 32° C.
Method: as §3, §4, §5

[7] = 0.00001% Compound No. 4, 0 hours
[8] = 0.00001% Compound No. 4, 4 hours
[9] = 0.00001% Compound No. 4, 24 hours
[10] = 0.00001% Compound No. 4, 48 hours
[11] = 0.0001% Compound No. 4, 0 hours
[12] = 0.0001% Compound No. 4, 4 hours
[13] = 0.0001% Compound No. 4, 24 hours
[14] = 0.0001% Compound No. 4, 48 hours
[15] = 0.001% Compound No. 4, 24 hours
[16] = 0.001% Compound No. 4, 48 hours

In the case of CCCCCCCCCCCCCC(=O)NCCCN(C)C [Compound No. 4, N,N-Dimethyl-N′-tetradecanoyl-1,3-propylenediamine], the “Number of Surviving Organisms” value ([1]; 0.00001% Compound No. 4, 0 hrs) is reported as 3.2 × 10^2, the “Number of Surviving Organisms” value ([1]; 0.00001% Compound No. 4, 4 hrs) is reported as 3.2 × 10^3 and the “Number of Surviving Organisms” value ([1]; 0.00001% Compound No. 4, 24 hrs) is reported as 3.2 × 10^3. The “Number of Surviving Organisms” value ([1]; 0.00001% Compound No. 4, 48 hrs) was 3.2 × 10^3, the “Number of Surviving Organisms” value ([1]; 0.0001% Compound No. 4, 0 hrs) was 3.2 × 10^2 and the “Number of Surviving Organisms” value ([1]; 0.0001% Compound No. 4, 4 hrs) was 3.2 × 10^3. The “Number of Surviving Organisms” value ([1]; 0.0001% Compound No. 4, 24 hrs) was 2.1 × 10^3, the “Number of Surviving Organisms” value ([1]; 0.0001% Compound No. 4, 48 hrs) was 2.1 × 10^3 and the “Number of Surviving Organisms” value ([1]; 0.001% Compound No. 4, 0 hrs) was 3.2 × 10^2. The “Number of Surviving Organisms” value ([1]; 0.001% Compound No. 4, 4 hrs) was 3.2 × 10^2, the “Number of Surviving Organisms” value ([1]; 0.001% Compound No. 4, 24 hrs) was 1.7 × 10^1 and the “Number of Surviving Organisms” value ([1]; 0.001% Compound No. 4, 48 hrs) was less than 10. The “Number of Surviving Organisms” value ([1]; 0.01% Compound No. 4, 0 hrs) was 3.2 × 10^2, the “Number of Surviving Organisms” value ([1]; 0.01% Compound No. 4, 4 hrs) was less than 10 and the “Number of Surviving Organisms” value ([1]; 0.01% Compound No. 4, 24 hrs) was less than 10. The “Number of Surviving Organisms” value ([1]; 0.01% Compound No. 4, 48 hrs) was less than 10, the “Number of Surviving Organisms” value (C. albicans ATCC 10231; [7]) was 3.3 × 10^3 and the “Number of Surviving Organisms” value (C. albicans ATCC 10231; [8]) was 3.2 × 10^3. The “Number of Surviving Organisms” value (C. albicans ATCC 10231; [9]) was 2.5 × 10^4, the “Number of Surviving Organisms” value (C. albicans ATCC 10231; [10]) was 1.3 × 10^5 and the “Number of Surviving Organisms” value (C. albicans ATCC 10231; [11]) was 3.3 × 10^3. The “Number of Surviving Organisms” value (C. albicans ATCC 10231; [12]) was 3.2 × 10^3, the “Number of Surviving Organisms” value (C. albicans ATCC 10231; [13]) was 1.5 × 10^4 and the “Number of Surviving Organisms” value (C. albicans ATCC 10231; [14]) was 1.3 × 10^5. For the same compound, the “Number of Surviving Organisms” value (C. albicans ATCC 10231; 0.001% Compound No. 4, 0 hours) was 3.3 × 10^3, the “Number of Surviving Organisms” value (C. albicans ATCC 10231; 0.001% Compound No. 4, 4 hours) was 4.3 × 10^1 and the “Number of Surviving Organisms” value (C. albicans ATCC 10231; [15]) was 1.0 × 10^1. For the same compound, the “Number of Surviving Organisms” value (C. albicans ATCC 10231; [16]) was 3.4 × 10^1, the “Number of Surviving Organisms” value (C. albicans ATCC 10231; 0.01% Compound No. 4, 0 hours) was 3.3 × 10^3 and the “Number of Surviving Organisms” value (C. albicans ATCC 10231; 0.01% Compound No. 4, 4 hours) was less than 1. For the same compound, the “Number of Surviving Organisms” value (C. albicans ATCC 10231; 0.01% Compound No. 4, 24 hours) was less than 1, the “Number of Surviving Organisms” value (C. albicans ATCC 10231; 0.01% Compound No. 4, 48 hours) was less than 1 and the “Number of Surviving Organisms” value (F. solani ATCC 36031; [7]) was 4.9 × 10^3. The “Number of Surviving Organisms” value (F. solani ATCC 36031; [8]) was 5.9 × 10^3, the “Number of Surviving Organisms” value (F. solani ATCC 36031; [9]) was 1.0 × 10^4 and the “Number of Surviving Organisms” value (F. solani ATCC 36031; [10]) was 4.8 × 10^3. The “Number of Surviving Organisms” value (F. solani ATCC 36031; [11]) was 4.9 × 10^3, the “Number of Surviving Organisms” value (F. solani ATCC 36031; [12]) was 6.9 × 10^3 and the “Number of Surviving Organisms” value (F. solani ATCC 36031; [13]) was 9.5 × 10^3. For the same compound, the “Number of Surviving Organisms” value (F. solani ATCC 36031; [14]) was 1.6 × 10^4, the “Number of Surviving Organisms” value (F. solani ATCC 36031; 0.001% Compound No. 4, 0 hours) was 4.9 × 10^3 and the “Number of Surviving Organisms” value (F. solani ATCC 36031; 0.001% Compound No. 4, 4 hours) was 1.0 × 10^1. The “Number of Surviving Organisms” value (F. solani ATCC 36031; [15]) was less than 1, the “Number of Surviving Organisms” value (F. solani ATCC 36031; [16]) was less than 1 and the “Number of Surviving Organisms” value (F. solani ATCC 36031; 0.01% Compound No. 4, 0 hours) was 4.9 × 10^3. The “Number of Surviving Organisms” value (F. solani ATCC 36031; 0.01% Compound No. 4, 4 hours) was less than 1, the “Number of Surviving Organisms” value (F. solani ATCC 36031; 0.01% Compound No. 4, 24 hours) was less than 1 and the “Number of Surviving Organisms” value (F. solani ATCC 36031; 0.01% Compound No. 4, 48 hours) was less than 1.
In the case of [H]/N=C(\N/C(=N/[H])NCCCCCCNC(=N)NC(=N)Nc1ccc(Cl)cc1)Nc1ccc(Cl)cc1 [Chlorhexidine, chlorhexidine, reference compound], the “Number of Surviving Organisms” value ([1]; 0.1% Chlorhexidine, 0 hrs) is reported as 3.2 × 10^2, the “Number of Surviving Organisms” value ([1]; 0.1% Chlorhexidine, 4 hrs) is reported as less than 10 and the “Number of Surviving Organisms” value ([1]; 0.1% Chlorhexidine, 24 hrs) is reported as less than 10. For the same compound, the “Number of Surviving Organisms” value ([1]; 0.1% Chlorhexidine, 48 hrs) was less than 10, the “Number of Surviving Organisms” value (C. albicans ATCC 10231; 0.1% Chlorhexidine, 0 hours) was 3.3 × 10^3 and the “Number of Surviving Organisms” value (C. albicans ATCC 10231; 0.1% Chlorhexidine, 4 hours) was less than 1. The “Number of Surviving Organisms” value (C. albicans ATCC 10231; 0.1% Chlorhexidine, 24 hours) was less than 1, the “Number of Surviving Organisms” value (C. albicans ATCC 10231; 0.1% Chlorhexidine, 48 hours) was less than 1 and the “Number of Surviving Organisms” value (F. solani ATCC 36031; 0.1% Chlorhexidine, 0 hours) was 4.9 × 10^3. For the same compound, the “Number of Surviving Organisms” value (F. solani ATCC 36031; 0.1% Chlorhexidine, 4 hours) was less than 1, the “Number of Surviving Organisms” value (F. solani ATCC 36031; 0.1% Chlorhexidine, 24 hours) was less than 1 and the “Number of Surviving Organisms” value (F. solani ATCC 36031; 0.1% Chlorhexidine, 48 hours) was less than 1. For the same compound, the “Minimum Cysticidal Concentration” value [2] was 31.3 micrograms/milliliter, the “Minimum Cysticidal Concentration” value [3] was 26.0 micrograms/milliliter and the “Minimum Cysticidal Concentration” value [4] was 52.1 micrograms/milliliter. For the same compound, the “Minimum Cysticidal Concentration” value [5] was 31.25 micrograms/milliliter and the “Minimum Cysticidal Concentration” value [6] was 62.5 micrograms/milliliter.
“polyhexamethylene biguanide [PHMB, reference compound]” was tested, and the “Number of Surviving Organisms” value ([1]; 0.02% PHMB, 0 hrs) was 3.2 × 10^2, the “Number of Surviving Organisms” value ([1]; 0.02% PHMB, 4 hrs) was less than 10 and the “Number of Surviving Organisms” value ([1]; 0.02% PHMB, 24 hrs) was less than 10. For the same compound, the “Number of Surviving Organisms” value ([1]; 0.02% PHMB, 48 hrs) was less than 10, the “Number of Surviving Organisms” value (C. albicans ATCC 10231; 0.02% PHMB, 0 hours) was 3.3 × 10^3 and the “Number of Surviving Organisms” value (C. albicans ATCC 10231; 0.02% PHMB, 4 hours) was less than 1. For the same compound, the “Number of Surviving Organisms” value (C. albicans ATCC 10231; 0.02% PHMB, 24 hours) was less than 1, the “Number of Surviving Organisms” value (C. albicans ATCC 10231; 0.02% PHMB, 48 hours) was less than 1 and the “Number of Surviving Organisms” value (F. solani ATCC 36031; 0.02% PHMB, 0 hours) was 4.9 × 10^3. The “Number of Surviving Organisms” value (F. solani ATCC 36031; 0.02% PHMB, 4 hours) was less than 1, the “Number of Surviving Organisms” value (F. solani ATCC 36031; 0.02% PHMB, 24 hours) was less than 1 and the “Number of Surviving Organisms” value (F. solani ATCC 36031; 0.02% PHMB, 48 hours) was less than 1.
